According to article PMC9048848 (RSC Advances, 2020):

Target: T1, PTP1B (Homo sapiens, UniProt P18031)
T1 sequence (P18031 1-321): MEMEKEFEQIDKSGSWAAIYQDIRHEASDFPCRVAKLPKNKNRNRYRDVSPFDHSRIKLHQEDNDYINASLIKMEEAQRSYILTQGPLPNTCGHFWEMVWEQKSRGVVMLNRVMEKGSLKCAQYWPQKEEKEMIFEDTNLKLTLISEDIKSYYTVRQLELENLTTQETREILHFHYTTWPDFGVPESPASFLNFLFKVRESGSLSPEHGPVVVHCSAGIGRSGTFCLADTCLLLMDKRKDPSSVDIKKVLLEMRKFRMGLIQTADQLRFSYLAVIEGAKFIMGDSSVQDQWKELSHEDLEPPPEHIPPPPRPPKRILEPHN
Experiment: SPR
Type: binding

- Kd: 3.3 µM
SMILES: CCOCc1cc(O)c(O)c(Br)c1Cc1cc(O)c(O)c(Br)c1Br [BPN, 3,4-Dibromo-5-(2-bromo-6-(ethoxymethyl)-3,4-dihydroxybenzyl)benzene-1,2-diol]
